Values of other authors in US20060252804A1, “Flupirtin injectable galenic form” (AWD.pharma GMBH &Co. KG, priority 2003, published 2006).

Conditions: in aqueous solutions and in most physiologically tolerated organic solvents

CCOC(=O)Nc1ccc(NCc2ccc(F)cc2)nc1N [flupirtine, 2-amino-3-carbethoxyamino-6-(4-fluorobenzylamino)pyridine]
solubility: scarcely soluble
